US5284829A, “Synthetic tetrapeptides for the prevention of schistosome parasite infection” (priority 1991, dated 1994)
Where a SMILES comes first, the peptide text is derived from it. [ ]: non-standard residue; d: D form. The star is where a group is joined. pNA = O=[N+]([O-])c1ccc(N*)cc1; AMC = Cc1cc(=O)oc2cc(N*)ccc12; MeOSuc = COC(=O)CCC(=O)*; Nle = CCCC[C@H](N)C(=O)O; SBn = c1ccc(CS*)cc1; CH2Cl = ClC*

Each molecule was assayed against T1, cercarial protease (Schistosoma mansoni, UniProt P12546) (assay: not given). Details: substrate hydrolysis, 100 mM glycine/NaOH, 2 mM CaCl2, pH 9.0; Lineweaver-Burk.
T1 construct: Serine protease was isolated from the acetabular glands of cercariae as described previously in McKerrow et al., 1985; from tissue; host or cells: acetabular glands of cercariae
Assay type: biochemical
Experimental: Serine protease was isolated from the acetabular glands of cercariae as described previously in McKerrow et al., 1985. J. Biol. Chem. 260, 3703-3707. All tetrapeptide thioester (Sbzl) substrates with the exception of MeO-Suc-Ala-Ala-Pro-Lys-Sbzl (a gift from Dr. James C. Powers, School of Chemistry, Georgia Institute of Technology, Atlanta, Ga.) were purchased from Enzyme System Products (Dublin, Calif.). Stock solutions (25 mM) of all substrates were prepared in dimethyl sulfoxide (DMSO). Rates of hydrolysis of substrates were measured by adding 1-10 μl of substrate and 25 μl of 1 mM 4,4'-dithiodipyridine in DMSO to buffer (100 mM glycine/NaOH, 2 mM CaCl2, pH 9.0) to give a total volume of 1.0 ml. A 10 μl enzyme sample was added to start the reaction. The increase in the absorbance at 325 nm was followed on a Gilford spectrophotometer. An ε value of 19,800 was used for the thiopyridine production.
Assays of paranitroanilide (pNA) and 7-amino-4-methyl coumarin (AMC) derivatized peptides were carried out as described in McKerrow et al., 1985. J. Biol. Chem. 260, 3703-3707. MeO-Suc-Ala-Ala-Pro-Phe-pNA was from Vega Biochemicals, Tucson, Az. MeO-Suc-Ala-Ala-Pro-Leu-pNA was a gift of Dr. David Agard, Department of Biochemistry, UCSF. All other pNA substrates were a gift of Dr. Corey Largman, Veterans Administration Hospital, Martinez, Calif. All AMC substrates were from Enzyme Systems Products, Dublin, Calif.
For each peptide substrate, the substrate concentration range was varied over ten-fold. The kinetic constants were determined from the initial rates of product formation using a least squares analysis according to method of Lineweaver-Burk (Lineweaver, H. & Burk, D. 1934. J. Am. Chem. Soc. 56, 658).

T1 sequence (P12546 28-264): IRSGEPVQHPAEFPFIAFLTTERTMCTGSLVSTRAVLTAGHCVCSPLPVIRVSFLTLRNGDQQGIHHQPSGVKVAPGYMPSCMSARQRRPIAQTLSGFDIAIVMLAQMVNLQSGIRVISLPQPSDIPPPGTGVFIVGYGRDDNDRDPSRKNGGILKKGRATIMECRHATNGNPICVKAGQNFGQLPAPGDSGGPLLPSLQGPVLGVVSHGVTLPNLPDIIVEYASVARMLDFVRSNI

SMILES | Km [µM]
COC(=O)CCC(=O)N[C@@H](C)C(=O)N[C@@H](C)C(=O)N1CCC[C@H]1C(=O)N[C@@H](CC(C)C)C(=O)SCc1ccccc1 [MeO-Suc-Ala-Ala-Pro-Leu-Sbzl] (MeOSuc-AAPL-SBn) | 464
COC(=O)CCC(=O)N[C@@H](C)C(=O)N[C@@H](C)C(=O)N1CCC[C@H]1C(=O)N[C@@H](CC(C)C)C(=O)Nc1ccc([N+](=O)[O-])cc1 [MeO-Suc-Ala-Ala-Pro-Leu-pNA] (MeOSuc-AAPL-pNA) | 118
COC(=O)CCC(=O)N[C@@H](C)C(=O)N[C@@H](C)C(=O)N1CCC[C@H]1C(=O)N[C@@H](CCSC)C(=O)Nc1ccc([N+](=O)[O-])cc1 [MeO-Suc-Ala-Ala-Pro-Met-pNA] (MeOSuc-AAPM-pNA) | 300
CCCC[C@H](NC(=O)[C@@H]1CCCN1C(=O)[C@H](C)NC(=O)[C@H](C)NC(=O)CCC(=O)OC)C(=O)Nc1ccc([N+](=O)[O-])cc1 [MeO-Suc-Ala-Ala-Pro-Nle-pNA] (MeOSuc-AAP[Nle]-pNA) | 300
COC(=O)CCC(=O)N[C@@H](C)C(=O)N[C@@H](C)C(=O)N1CCC[C@H]1C(=O)N[C@@H](Cc1ccccc1)C(=O)SCc1ccccc1 [MeO-Suc-Ala-Ala-Pro-Phe-Sbzl] (MeOSuc-AAPF-SBn) | 96
COC(=O)CCC(=O)N[C@@H](C)C(=O)N[C@@H](C)C(=O)N1CCC[C@H]1C(=O)N[C@@H](Cc1ccccc1)C(=O)Nc1ccc([N+](=O)[O-])cc1 [MeO-Suc-Ala-Ala-Pro-Phe-pNA] (MeOSuc-AAPF-pNA) | 119
COC(=O)CCC(=O)N[C@@H](Cc1ccccc1)C(=O)N[C@@H](C)C(=O)N1CCC[C@H]1C(=O)N[C@@H](Cc1ccccc1)C(=O)SCc1ccccc1 [MeO-Suc-Phe-Ala-Pro-Phe-Sbzl] (MeOSuc-FAPF-SBn) | 244

Same assay, conditions: very low activity = absorbance change less than 0.001 O.D. in 40 min with 1.5 mM substrate

SMILES | substrate hydrolysis activity (in words)
COC(=O)CCC(=O)N[C@@H](C)C(=O)N[C@@H](C)C(=O)N1CCC[C@H]1C(=O)N[C@@H](C)C(=O)Nc1ccc2c(C)cc(=O)oc2c1 [MeO-Suc-Ala-Ala-Pro-Ala-AMC] (MeOSuc-AAPA-{AMC}) | no activity
COC(=O)CCC(=O)N[C@@H](C)C(=O)N[C@@H](C)C(=O)N1CCC[C@H]1C(=O)N[C@@H](C)C(=O)SCc1ccccc1 [MeO-Suc-Ala-Ala-Pro-Ala-Sbzl] (MeOSuc-AAPA-SBn) | no activity
COC(=O)CCC(=O)N[C@@H](C)C(=O)N[C@@H](C)C(=O)N1CCC[C@H]1C(=O)N[C@@H](CCCCN)C(=O)SCc1ccccc1 [MeO-Suc-Ala-Ala-Pro-Lys-Sbzl] (MeOSuc-AAPK-SBn) | no activity
COC(=O)CCC(=O)N[C@@H](C)C(=O)N[C@@H](C)C(=O)N1CCC[C@H]1C(=O)N[C@H](C(=O)Nc1ccc2c(C)cc(=O)oc2c1)C(C)C [MeO-Suc-Ala-Ala-Pro-Val-AMC] (MeOSuc-AAPV-{AMC}) | no activity
COC(=O)CCC(=O)N[C@@H](Cc1c[nH]c2ccccc12)C(=O)N[C@@H](C)C(=O)N1CCC[C@H]1C(=O)N[C@@H](Cc1ccccc1)C(=O)SCc1ccccc1 [MeO-Suc-Trp-Ala-Pro-Phe-Sbzl] (MeOSuc-WAPF-SBn) | no activity

Each molecule was assayed against T1, cercarial protease (assay: biochemical). Details: not given.
Experimental: (§1) The chloromethyl ketone-derivatized peptide inhibitors were designed by us based on our computer model, and synthesized for us by Enzyme System Products (Dublin, Calif.). Stock solutions of inhibitors (25 mM) were prepared in dimethyl sulfoxide (DMSO). The rate of irreversible inactivation of the protease was followed by withdrawing a 25 μl sample at 4 time intervals after mixing 125 μl of enzyme with 5 μl of inhibitor. Kitz and Wilson's methods of analysis were used for calculation of Ki, k3, and k3 /Ki (Kitz R. & Wilson, I. B. 1962. J. Biol. Chem. 237, 3245) using MeO-Suc-Ala-Ala-Pro-Phe-Sbzl (Sbzl, benzyl thioester) as substrate. Inactivation constants for the boronic acid-derivatized peptides (MeO-Suc-Ala-Ala-Pro (D or L) boro-Phe-OH, a gift from Dr. Charles Kettner, E. I. Dupont de Nemours, Wilmington, Del.) were calculated using MeO-Suc-Ala-Ala-Pro-Phe-Sbzl as the substrate at 125 and 250 μM. Five different concentrations of each inhibitor were used per substrate concentration. The data were plotted according to Dixon and kinactivation values were extrapolated from the graph (Dixon, 1953. Biochem. J. 55, 170-171).

SMILES | Ki [µM]
COC(=O)CCC(=O)N[C@@H](C)C(=O)N[C@@H](C)C(=O)N1CCC[C@H]1C(=O)N[C@@H](CC(C)C)C(=O)CCl [MeO-Suc-Ala-Ala-Pro-Leu-CMK] (MeOSuc-AAPL-CH2Cl) | 12
COC(=O)CCC(=O)N[C@@H](C)C(=O)N[C@@H](C)C(=O)N1CCC[C@H]1C(=O)N[C@@H](Cc1ccccc1)C(=O)CCl [MeO-Suc-Ala-Ala-Pro-Phe-CMK] (MeOSuc-AAPF-CH2Cl) | 13
COC(=O)CCC(=O)N[C@@H](C)C(=O)N[C@@H](C)C(=O)N1CCC[C@H]1C(=O)N[C@@H](Cc1c[nH]c2ccccc12)C(=O)CCl [MeO-Suc-Ala-Ala-Pro-Trp-CMK] (MeOSuc-AAPW-CH2Cl) | 20
COC(=O)CCC(=O)N[C@@H](C)C(=O)N[C@@H](CCCCN)C(=O)N1CCC[C@H]1C(=O)N[C@@H](Cc1ccccc1)C(=O)CCl [MeO-Suc-Ala-Lys-Pro-Phe-CMK] | 7
COC(=O)CCC(=O)N[C@@H](Cc1ccccc1)C(=O)N[C@@H](C)C(=O)N1CCC[C@H]1C(=O)N[C@@H](Cc1ccccc1)C(=O)CCl [MeO-Suc-Phe-Ala-Pro-Phe-CMK] (MeOSuc-FAPF-CH2Cl) | 1
COC(=O)CCC(=O)N[C@@H](Cc1c[nH]c2ccccc12)C(=O)N[C@@H](C)C(=O)N1CCC[C@H]1C(=O)N[C@@H](CC(C)C)C(=O)CCl [MeO-Suc-Trp-Ala-Pro-Leu-CMK] (MeOSuc-WAPL-CH2Cl) | 2
COC(=O)CCC(=O)N[C@@H](Cc1c[nH]c2ccccc12)C(=O)N[C@@H](C)C(=O)N1CCC[C@H]1C(=O)N[C@@H](Cc1ccccc1)C(=O)CCl [MeO-Suc-Trp-Ala-Pro-Phe-CMK] (MeOSuc-WAPF-CH2Cl) | 12

What follows are molecules tested against Cercarial Proteinase (Schistosoma mansoni, UniProt P12546) (assay: biochemical). Details: not given.
Experimental: as §1, with “Kitz and Wilson's methods of analysis were used for calculation of Ki, k3, and k3 /Ki (Kitz R. & Wilson, I.” left out
Therefore a boronic acid derivatized peptide analogous to the chloromethyl ketone derivatized Ala-Ala-Pro-Phe sequence was also tested. […] Stereoisomers of the same peptide were also evaluated.

Sequence of Cercarial Proteinase (P12546 28-264): as above

SMILES | IC50 [µM]
COC(=O)CCC(=O)N[C@@H](C)C(=O)N[C@@H](C)C(=O)N1CCC[C@H]1C(=O)N[C@@H](C)C(=O)CCl [MeO-Suc-Ala-Ala-Pro-Ala-CMK] (MeOSuc-AAPA-CH2Cl) | > 100
COC(=O)CCC(=O)N[C@@H](C)C(=O)N[C@@H](C)C(=O)N1CCC[C@H]1C(=O)N[C@@H](CC(C)C)C(=O)CCl [MeO-Suc-Ala-Ala-Pro-Leu-CMK] (MeOSuc-AAPL-CH2Cl) | 0.036
COC(=O)CCC(=O)N[C@@H](C)C(=O)N[C@@H](C)C(=O)N1CCC[C@H]1C(=O)N[C@@H](Cc1ccccc1)C(=O)CCl [MeO-Suc-Ala-Ala-Pro-Phe-CMK] (MeOSuc-AAPF-CH2Cl) | 0.088

These molecules were tested on cercariae of Schistosoma mansoni (Puerto Rican strain) (assay: not given). Details: 50 micromolar.
Assay type: cell-based
Experimental: A modification of the assay developed by Clegg and Smithers (Clegg & Smithers, 1972. Int. J. Parasitol. 2, 79-98.) was used. Two Plexiglass chambers were manufactured which could be screwed together to hold a 25×25 mm section of skin at the interface of the two chambers. Human skin was obtained from autopsy (6-12 hours following death) or from amputation specimens received at the Department of Surgical Pathology, UCSF. The chamber below the skin was filled with tissue culture medium (DME H16) prewarmed to 37° C. After the skin was clamped, the upper chamber was filled with water containing 9000 cercariae of Schistosoma mansoni (Puerto Rican strain). Cercariae will follow a thermal gradient, and they are stimulated by the lipid on the surface of skin to invade (Stirewalt, 1974. Adv. Parasitol. 12, 115-180). After one hour exposure to cercariae the skin was removed, fixed in 10% phosphate buffered formalin for 24 h, and sectioned at 2 mm intervals. Following dehydration and routine paraffin embedding, 5μ sections were cut by microtome and stained with hemotoxylin and eosin. The number of cercariae which had invaded epidermis or dermis was counted in each section. Percent inhibition of invasion was calculated as [formula] All assays were done in triplicate and standard deviation of the mean calculated. […]

SMILES | cercariae inhibited from invading skin
COC(=O)CCC(=O)N[C@@H](C)C(=O)N[C@@H](C)C(=O)N1CCC[C@H]1C(=O)N[C@H](Cc1ccccc1)B(O)O [MeO-Suc-Ala-Ala-Pro-(D)boro-Phe-OH] | less than 20%
COC(=O)CCC(=O)N[C@@H](C)C(=O)N[C@@H](C)C(=O)N1CCC[C@H]1C(=O)N[C@@H](Cc1ccccc1)B(O)O [MeO-Suc-Ala-Ala-Pro-(L)boro-Phe-OH] | 50%
